Test results as given in patent US12581252B2, “Substituted pyrrolo[3,4-b]pyridines as PI3K-α inhibitors” (Relay Therapeutics, Inc., priority 2020, dated 2026).

molecular target: H1047R PIK3CA enzyme (Homo sapiens, UniProt P42336, H1047R); test: ADP-Glo Biochemical PIK3CA Kinase Assay
Sequence (P42336 whole entry H1047R): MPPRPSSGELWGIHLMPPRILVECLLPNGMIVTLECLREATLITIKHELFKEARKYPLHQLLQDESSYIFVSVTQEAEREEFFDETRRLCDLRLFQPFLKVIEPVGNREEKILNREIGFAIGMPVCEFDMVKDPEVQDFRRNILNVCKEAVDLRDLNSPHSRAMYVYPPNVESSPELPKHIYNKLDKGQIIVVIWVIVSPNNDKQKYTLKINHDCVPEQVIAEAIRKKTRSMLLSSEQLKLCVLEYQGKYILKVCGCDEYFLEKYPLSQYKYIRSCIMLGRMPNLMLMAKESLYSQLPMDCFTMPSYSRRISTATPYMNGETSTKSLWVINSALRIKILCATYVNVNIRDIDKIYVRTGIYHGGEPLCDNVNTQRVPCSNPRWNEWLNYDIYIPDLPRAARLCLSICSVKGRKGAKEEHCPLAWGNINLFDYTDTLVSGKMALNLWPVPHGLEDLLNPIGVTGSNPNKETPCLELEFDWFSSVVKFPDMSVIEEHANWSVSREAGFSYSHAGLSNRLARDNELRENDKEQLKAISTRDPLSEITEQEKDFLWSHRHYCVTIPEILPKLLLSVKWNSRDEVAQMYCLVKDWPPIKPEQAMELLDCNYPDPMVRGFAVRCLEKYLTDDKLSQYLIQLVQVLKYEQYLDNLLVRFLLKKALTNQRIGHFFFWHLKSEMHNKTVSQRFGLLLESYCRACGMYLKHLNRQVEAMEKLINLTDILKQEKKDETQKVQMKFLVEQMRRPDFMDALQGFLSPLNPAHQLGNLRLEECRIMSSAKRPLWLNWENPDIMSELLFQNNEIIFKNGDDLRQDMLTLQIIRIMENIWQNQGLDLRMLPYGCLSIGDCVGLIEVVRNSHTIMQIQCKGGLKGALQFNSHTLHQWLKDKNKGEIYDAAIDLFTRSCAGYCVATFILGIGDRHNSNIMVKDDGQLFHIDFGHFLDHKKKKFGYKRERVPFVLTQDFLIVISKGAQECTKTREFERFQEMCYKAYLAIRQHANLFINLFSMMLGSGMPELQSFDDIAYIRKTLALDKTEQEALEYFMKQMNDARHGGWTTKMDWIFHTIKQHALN
Sequence (P27986 whole entry partner): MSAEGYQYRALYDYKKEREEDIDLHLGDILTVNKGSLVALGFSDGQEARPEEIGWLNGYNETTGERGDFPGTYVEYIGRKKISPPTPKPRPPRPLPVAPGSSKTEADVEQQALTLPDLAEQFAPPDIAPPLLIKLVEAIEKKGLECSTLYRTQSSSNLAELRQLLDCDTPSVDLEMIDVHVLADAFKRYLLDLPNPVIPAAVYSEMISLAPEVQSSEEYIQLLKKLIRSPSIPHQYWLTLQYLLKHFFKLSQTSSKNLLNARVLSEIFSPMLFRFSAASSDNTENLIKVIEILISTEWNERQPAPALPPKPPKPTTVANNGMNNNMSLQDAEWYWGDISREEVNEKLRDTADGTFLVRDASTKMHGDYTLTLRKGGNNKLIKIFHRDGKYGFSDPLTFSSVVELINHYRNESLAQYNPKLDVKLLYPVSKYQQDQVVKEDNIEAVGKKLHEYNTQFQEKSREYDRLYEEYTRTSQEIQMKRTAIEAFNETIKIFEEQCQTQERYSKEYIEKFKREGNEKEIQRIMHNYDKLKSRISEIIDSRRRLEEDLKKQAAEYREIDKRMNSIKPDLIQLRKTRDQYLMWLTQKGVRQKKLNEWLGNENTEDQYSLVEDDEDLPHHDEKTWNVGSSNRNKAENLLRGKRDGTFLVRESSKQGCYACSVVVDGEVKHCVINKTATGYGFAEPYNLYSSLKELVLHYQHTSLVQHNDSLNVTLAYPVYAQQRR

Row | SMILES | IC50
1 | O=C1C[C@@H](c2cc(NC(=O)c3cc(F)cc(C(F)(F)F)c3)c3c(c2)C(=O)N[C@@H]3c2cc(F)ccc2Cl)CN1 (single isomer, unassigned) [Compound I-1712] | 1000 to 10000 nM
2 | O=C(Nc1cc(OC[C@@H]2CCO2)cc2c1[C@@H](c1cc(F)ccc1Cl)NC2=O)c1cc(F)cc(C(F)(F)F)c1 (single isomer, unassigned) [Compound I-1519] | 10000 to 100000 nM
3 | O=C(Nc1cccc2c1[C@H]([C@@H]1COCCN1)NC2=O)c1cc(F)cc(C(F)(F)F)c1 (racemic) [Compound I-1901] | 10000 to 100000 nM
4 | Cc1ccc2c(c1)CCN2C(=O)Nc1cccc2c1C(c1cc(F)ccc1Cl)NC2=O (centres unmarked) [Compound I-2440] | 10000 to 100000 nM
5 | O=C(Nc1cc(N2CC(F)(F)C2)nc2c1[C@H](c1cc(F)ccc1Cl)NC2=O)c1cc(F)cc(C(F)(F)F)c1 [Compound I-366] | ≤ 100 nM
6 | O=C1NC[C@@H](c2cc(NC(=O)c3cc(F)cc(C(F)(F)F)c3)c3c(c2)C(=O)N[C@H]3c2cc(F)ccc2Cl)O1 (single isomer, unassigned) [Compound I-1562] | ≤ 100 nM
7 | Cn1cc(-c2cc(NC(=O)c3cc(F)cc(C(F)(F)F)c3)c3c(n2)C(=O)N[C@@H]3c2cc(F)ccc2Cl)ccc1=O [Compound I-587] | 1000 to 10000 nM
8 | O=C(CC1CCCCC1)Nc1cc(-c2ccc3ncnn3c2)cc2c1C(c1cc(F)ccc1Cl)NC2=O (centres unmarked) [Compound I-1627] | 1000 to 10000 nM
9 | Cn1cncc1C#Cc1cc(NC(=O)c2cc(F)cc(C(F)(F)F)c2)c2c(c1)C(=O)NC2c1cc(F)ccc1Cl (centres unmarked) [Compound I-1247] | ≤ 100 nM
10 | Cc1ccccc1C1NC(=O)c2cccc(NC(=O)c3cc(F)cc(Br)c3)c21 (centres unmarked) [Compound I-391] | 500 to 1000 nM
11 | O=C(Nc1ccccc1)c1cc(-c2ccc3ncnn3c2)cc2c1C(c1cc(F)ccc1Cl)NC2=O (centres unmarked) [Compound I-1897] | 10000 to 100000 nM
12 | O=C(Nc1cc(Br)cc2c1C(c1cc(F)ccc1Cl)NC2=O)c1cc(F)ccc1Cl (centres unmarked) [Compound I-791] | 10000 to 100000 nM
13 | O=C(Nc1cc(-c2cnn(-c3ncccn3)c2)cc2c1C(c1cc(F)ccc1Cl)NC2=O)c1cc(F)cc(C(F)(F)F)c1 (single isomer, unassigned) [Compound I-1555] | ≤ 100 nM
14 | O=C(Nc1cc(-c2ccc3cncn3c2)cc2c1C(c1cc(F)ccc1Cl)NC2=O)c1cc(F)cc(C(F)(F)F)c1 (centres unmarked) [Compound I-1500] | ≤ 100 nM
15 | O=C(Nc1cccc2c1[C@H](c1cc(F)ccc1C(F)F)NC2=O)c1cc(F)cc(C(F)(F)F)c1 [Compound I-170] | ≤ 100 nM
16 | O=C1NC(c2cc(F)ccc2Cl)c2c(NC(=O)N3CC(C(F)(F)F)Nc4ccccc43)cccc21 (centres unmarked) [Compound I-2339] | 10000 to 100000 nM
17 | O=C1NC(c2cc(F)ccc2Cl)c2c(NC(=O)C3CCCC3C(F)F)cc(Br)cc21 (centres unmarked) [Compound I-1621] | 10000 to 100000 nM
18 | NS(=O)(=O)c1cc(-c2ccc3ncnn3c2)cc2c1[C@H](c1cc(F)ccc1Cl)NC2=O [Compound I-2101] | 10000 to 100000 nM
19 | O=C(Nc1ccccc1)Nc1cc(Br)cc2c1[C@@H](c1cc(F)ccc1Cl)NC2=O (stereo in doubt) [Compound I-1946] | 1000 to 10000 nM
20 | O=C(Nc1cc(Br)cc2c1C(c1cc(F)ccc1Cl)NC2=O)c1cc(F)cc(CC2CCC2)c1 (centres unmarked) [Compound I-1350] | 1000 to 10000 nM
21 | O=C1NC(c2cc(F)ccc2Cl)c2c(Nc3nncc4ccccc34)cc(Br)cc21 (centres unmarked) [Compound I-760] | 10000 to 100000 nM
22 | CC(=O)c1cc(NC(=O)c2cc(F)cc(Cl)c2)c2c(c1)C(=O)NC2c1cc(F)ccc1Cl (centres unmarked) [Compound I-215] | 100 to 500 nM

Row | SMILES | IC50
23 | CC(C)[C@]1(O)CN(C(=O)Nc2cccc3c2[C@@H](c2cc(F)ccc2Cl)NC3=O)c2ccc(F)cc21 (single isomer, unassigned) [Compound I-2455] | 1000 to 10000 nM
24 | Nc1cc(NC(=O)c2cc(F)cc(C(F)(F)F)c2)c2c(c1)C(=O)N[C@@H]2c1cc(F)ccc1Cl [Compound I-217] | 1000 to 10000 nM
25 | O=C1N[C@@H](c2cc(F)ccc2Cl)c2c(NC(=O)N3C[C@H](O)c4cc(F)ccc43)cc(Cl)cc21 (single isomer, unassigned) [Compound I-2400] | 100 to 500 nM
26 | O=C1N[C@H](c2cc(F)ccc2Cl)c2c(NC(=O)N3C[C@](O)(C(F)(F)F)c4cc(F)ccc43)cc(N3CCCC3=O)cc21 (single isomer, unassigned) [Compound I-2666] | 1000 to 10000 nM
27 | O=C1NC(c2cc(F)ccc2F)c2c(NC(=O)c3csc4ccccc34)ccnc21 (centres unmarked) [Compound I-71] | 500 to 1000 nM
28 | O=C1N[C@@H](c2cc(F)ccc2Cl)c2c(NC(=O)c3csc4ccccc34)cc(Br)cc21 [Compound I-734] | ≤ 100 nM
29 | N#Cc1cnc2ncc(-c3cc(NC(=O)c4cc(F)cc(C(F)(F)F)c4)c4c(c3)C(=O)N[C@@H]4c3cc(F)ccc3Cl)cn12 [Compound I-1858] | 500 to 1000 nM
30 | O=C(Nc1cc(Cn2ccnc2)cc2c1C(c1cc(F)ccc1Cl)NC2=O)c1cc(F)cc(C(F)(F)F)c1 (centres unmarked) [Compound I-1430] | ≤ 100 nM
31 | N#Cc1c(-c2cc(NC(=O)c3cc(F)cc(C(F)(F)F)c3)c3c(c2)C(=O)NC3c2cc(F)ccc2Cl)cnn1C(F)F (centres unmarked) [Compound I-1862] | ≤ 100 nM
32 | O=C(Nc1cc(CC2COC2)cc2c1C(c1cc(F)ccc1Cl)NC2=O)c1cc(F)cc(C(F)(F)F)c1 (centres unmarked) [Compound I-1279] | ≤ 100 nM
33 | O=C1NC(c2cc(F)ccc2Cl)c2c(Nc3nccc4ccccc34)cc(Br)cc21 (centres unmarked) [Compound I-762] | 1000 to 10000 nM
34 | Cc1ccccc1C1NC(=O)c2c(C(N)=O)ccc(NC(=O)c3csc4ccccc34)c21 (centres unmarked) [Compound I-149, 7-(Benzo[b]thiophene-3-carboxamido)-3-oxo-1-(o-tolyl)isoindoline-4-carboxamide] | ≤ 100 nM
35 | O=C(Nc1cc(-c2cnn(C(F)F)c2)cc2c1[C@@H](c1cc(F)ccc1Cl)NC2=O)c1cc(F)cc(C(F)(F)F)c1 (single isomer, unassigned) [Compound I-1739] | 1000 to 10000 nM
36 | O=C1NC(c2cc(F)ccc2Cl)c2c(NC(=O)N3CCc4ccc(C(F)(F)F)cc43)cccc21 (centres unmarked) [Compound I-2447] | 1000 to 10000 nM
37 | O=C(Nc1cc(-c2cn3ncnc3cc2F)cc2c1[C@@H](c1cc(F)ccc1Cl)NC2=O)c1cc(F)cc(C(F)(F)F)c1 (stereo in doubt) [Compound I-1701] | 1000 to 10000 nM
38 | CC1(Cc2cc(NC(=O)c3cc(F)cc(C(F)(F)F)c3)c3c(c2)C(=O)NC3c2cc(F)ccc2Cl)COC1 (centres unmarked) [Compound I-710] | ≤ 100 nM
39 | N#CCc1cc(NC(=O)N2C[C@@](O)(C(F)(F)F)c3ccccc32)c2c(c1)C(=O)N[C@@H]2c1cc(F)ccc1Cl (single isomer, unassigned) [Compound I-2603] | 1000 to 10000 nM
40 | Cc1cc(=O)[nH]cc1C(=O)Nc1cc(Br)cc2c1[C@@H](c1cc(F)ccc1Cl)NC2=O [Compound I-2107] | 10000 to 100000 nM
41 | Cc1nc2ccccn2c1CC(=O)Nc1cc(Br)cc2c1C(c1cc(F)ccc1Cl)NC2=O (centres unmarked) [Compound I-603] | 10000 to 100000 nM
42 | CS(=O)(=O)c1ccc(-c2cc(NC(=O)c3cc(F)cc(C(F)(F)F)c3)c3c(c2)C(=O)NC3c2cc(F)ccc2Cl)nc1 (centres unmarked) [Compound I-1456] | ≤ 100 nM
43 | O=C1N[C@H](c2cc(F)ccc2Cl)c2c(NC(=O)N3C[C@@H](O)c4cc(F)ccc43)cccc21 (single isomer, unassigned) [Compound I-2129] | 10000 to 100000 nM
44 | [2H]C([2H])(c1cc(NC(=O)c2cc(F)cc(C(F)(F)F)c2)c2c(c1)C(=O)N[C@@H]2c1cc(F)ccc1Cl)S(C)(=O)=O (single isomer, unassigned) [Compound I-1788] | 100 to 500 nM
